The subject of test [1] is planktonic S. aureus strain ATCC-6538. Nature of the test: Antimicrobial susceptibility testing in acidic versus basic/physiological pH. The following applies: acidic (pH 5) versus basic/physiological (pH 7.4). It counts as cell-based, Staphylococcus aureus. The procedure: Antimicrobial susceptibility testing of BP-ciprofloxacin against planktonic cultures of S. aureus strain ATCC-6538 in acidic versus basic pH: This experimental setting was performed in the same manner as described previously for disc diffusion testing, but microbiological media was adjusted to pH 7.4 and pH 5 using KOH or HCL solution and measured using a universal pH-indicator (Merck, Poland).
Antimicrobial susceptibility testing of 6 against planktonic cultures of S. aureus strain ATCC-6538 in acidic versus physiological pH: This experimental setting was performed in the same manner as described previously for disc diffusion testing, but microbiological media was adjusted to pH 7.4 and pH 5 using KOH or HCL solution and measured using a universal pH-indicator (Merck, Poland).

The subject of a further test is S. aureus 6538. Nature of the test: Preventative assay, HA spherules pretreated then inoculated with S. aureus. The test is classed as cell-based, Staphylococcus aureus. Here is the method:
Preventative ability of BP-ciprofloxacin conjugate to inhibit S. aureus 6538 adherence to HA spherules: Various BP-ciprofloxacin concentrations were introduced to HA powder (spherules) suspended in TSB microbiological medium. Solutions containing conjugate and HA spherules were introduced to wells of 24-well plates. Final concentrations of powder were 10 mg/1 mL, while final concentrations of the conjugate were 0.12-250 mg/L. Suspensions were left for 24 h/37° C./shaking. After 24 h, suspensions were removed from the wells and impulse-centrifuged to precipitate HA powder. Next, supernatant was very gently discarded and a fresh 1 mL of S. aureus of density 10^5 cfu/mL was introduced to the HA spherules. Subsequently, this solution was shaken, absorbance was measured using 580 nm wavelength and left for 24 h/37° C./shaking. After incubation absorbance was measured again and values from 0 hr and 24 hrs were compared to assess reduction of bacterial growth with regard to control sample one (bacterial suspension but no spherules) and control sample two (bacterial suspension+spherules but with no conjugate added). Additionally, solutions were impulse-centrifuged, supernatant was gently discarded, while bacteria-containing HA spherules were culture plated as before and quantitatively assessed. […]

Test [2] relates to Aggregatibacter actinomycetemcomitans (Aa; wild-type rough strain D7S-1; serotype a). Nature of the test: Disc diffusion inhibition zone assay on Aa. It counts as cell-based. The source says:
(§1) Since this BP-ciprofloxacin conjugate is novel and has not been tested in vivo, we performed an initial safety and efficacy study in an animal model of peri-implant osteomyelitis. This model is a unique in-house jawbone peri-implant osteomyelitis model that was developed specifically for translational value to study biofilm-mediated disease and host response in vivo (Freire, et al, Development of animal model for Aggregatibacter actinomycetemcomitans biofilm-mediated oral osteolytic infection: a preliminary study. J Periodontol 2011; 82:778-89). […] After biofilms are established on the implants in vitro, they are surgically transferred to the jawbone of each rat. Animals are anesthetized, the cheeks are retracted and a transmucosal osteotomy is performed so implants can be manually inserted into the osteotomy and secured. Two biofilm-inoculated implants are placed in each rat (n=12 rats and 24 implants) in the palatal bone bilaterally.
Next, inhibition zones were recorded using a ruler.
After biofilms were established on the implants in vitro, they were surgically transferred to the jawbone of each rat. For surgery, animals were anesthetized with 4% isoflurane inhalant initially followed by intraperitoneal injection of ketamine (80-90 mg/kg) plus xylazine (5-10 mg/kg). Then local anesthesia was given via infiltration injection of bupivicaine 0.25% at the surgical site. […]
On the technique in general: In agar diffusion tests the substance spreads into inoculated agar from a disc or well.

The test system is the same in test [3]. In words: MIC assay on Aa. The test is classed as cell-based.
Excerpt: as §1
Subsequently, the plate was incubated for 24 h/37° C. in a shaker to obtain optimal conditions for microbial growth and to prevent bacteria from forming biofilms. After incubation, the absorbance was measured once again. The following control samples were established: negative control sample one: sterile medium without microbes; negative control sample two: sterile medium without microbes implemented with DMSO (dimethyl sulfoxide, Sigma-Aldritch) to final concentration of 1% (v/v); positive control sample one: medium+microbes with no compound tested; positive control sample two: medium+microbes with no compound tested but implemented with DMSO to final concentration of 1% (v/v). […] To assess relative number of cells, the following calculations were performed. […] Next, the relative number of cells subjected to incubation with tested compounds were counted as follows: […].
After biofilms were established on the implants in vitro, they were surgically transferred to the jawbone of each rat. […]

The values below come from US12624057B2, “Bisphosphonate quinolone conjugates and uses thereof” (BIOVINC, LLC, priority 2016, dated 2026).

≈ marks a conversion by molar mass, not a printed value. Entries after “also recorded” stand apart in the source; their conditions may differ. Some results are limits rather than exact numbers.

Consider `O=C(O)c1cn(C2CC2)c2cc(N3CCN(C(=O)Oc4ccc(CC(P(=O)(O)O)P(=O)(O)O)cc4)CC3)c(F)cc2c1=O` [Compound 6, 1-cyclopropyl-7-(4-((4-(2,2-diphosphonoethyl)phenoxy)carbonyl)piperazin-1-yl)-6-fluoro-4-oxo-1,4-dihydroquinoline-3-carboxylic acid], for which the figures for the “effect of pH on antimicrobial activity / concentration to reach MIC50” value in test [1] and in test [1] (listed as BP-ciprofloxacin) were “half the conjugate concentration; also recorded: slightly improved profile in acidic conditions” and “half the conjugate concentration; also recorded: improved bactericidal profile in acidic”, respectively.

Take `O=C(O)c1cn(C2CC2)c2cc(N3CCNCC3)c(F)cc2c1=O` [ciprofloxacin, reference compound]: the “concentration giving the only significant reduction” value in the test on S. aureus 6538 stood at 400 µg/mL. Moreover, the “disc diffusion inhibition zone diameters” value in test [2] is given as > 40 mm. In addition, the figures for the MIC90 in test [3] (Example 1), in test [3] (Example 5) and in test [3] (Example 6) were 2 µg/mL (≈ 6.04 µM), 2 µg/mL (≈ 6.04 µM) and 2000 µg/mL (≈ 6040 µM), respectively.
